Experimental data: patent US20180298024A1, “CORTISTATIN ANALOGS AND USES THEREOF” (President and Fellows of Harvard College, priority 2015, published 2018)

How the values were obtained:
MOLM-14 = test: Half-maximal growth inhibition (GI50), MOLM-14; type: cell-based; settings: Homo sapiens, 240 h, AML, M5, MLL-AF9, read-out: GI50 (nM), day 10
Description: (§1) Compounds A, B, C, D, and F were tested against various cell lines to probe their broad utility against cancer. Cortistatin A (CA) was also tested against the cell lines in a head to head fashion.

OCI-AML2 = test: Half-maximal growth inhibition (GI50), OCI-AML2; type: cell-based; settings: Homo sapiens, 240 h, AML, M4, DNMT3A R635W, read-out: GI50 (nM), day 10
Description: as §1

K562 = test: Half-maximal growth inhibition (GI50), K562; type: cell-based; settings: Homo sapiens, 240 h, CML, BCR-Abl, read-out: GI50 (nM), day 10
Description: as §1

in vivo = settings: male, CD-1, mouse, ip, 0.16 mg/kg
Description: Formulation correction for salt content was not required for this study. Materials were vortexed and sonicated at room temperature following addition of vehicle. The solutions were maintained at ambient temperature stirring in the dark for at least 30 minutes prior to dose administration. The formulations were then vortexed and sonicated briefly to help ensure solubility.
Mice were selected from the Testing Facility's rodent colony. The animals were enrolled in the study based on acceptable health as determined by Testing Facility personnel on the day of test article administration. Animals were held in environmental acclimation for at least 48 hours (±6 hours) prior to dosing. Animals were maintained at temperatures between 16-26° C. (62-78° F.) with the humidity range between 30-70%. Animals in all groups were fasted overnight and food was returned 4 hours following dosing. Water was provided ad libitum throughout the study.
Whole blood samples for plasma were either collected from each animal by either direct vein puncture of the submandibular vein (survival blood collection) or by cardiac puncture following euthanasia with CO2 (terminal blood collection). […] Following collection, whole blood was placed into a tube containing K2EDTA and immediately placed on wet ice until processed for plasma. Whole blood samples were centrifuged at 2200×g for 10 minutes in a refrigerated centrifuge (5±3° C.) to isolate plasma. The samples were transferred to individual polypropylene containers and immediately placed on dry ice before storage at −70±10° C. until analysis. Plasma collected from undosed spare animals was pooled and analyzed as well.
Once collected the mouse plasma studies were quantitated using LCMS/MS spectroscopy to determine the concentration of compound. […] Eight calibration standards containing the analyte and internal standard imipramine were prepared and analyzed at the beginning and at the end of the sequence. A calibration curve was generated and sample concentrations calculated using the Quantitation software MassHunter.

SKNO-1 = test: Half-maximal growth inhibition (GI50), SKNO-1; type: cell-based; settings: Homo sapiens, 240 h, AML, M2, RUNX1-RUNX1T1, read-out: GI50 (nM), day 10
Description: as §1

MKPL1 = test: Half-maximal growth inhibition (GI50), MKPL1; type: cell-based; settings: Homo sapiens, 240 h, AML, M7, read-out: GI50 (nM), day 10
Description: as §1

HEL = test: Half-maximal growth inhibition (GI50), HEL; type: cell-based; settings: Homo sapiens, 240 h, AML, erythroleukemia, JAK2V617F, read-out: GI50 (nM), day 10
Description: as §1

[1] = test system: Human AML cell line MV4;11; test: MV4;11 disseminated leukemia model (bioluminescence); type: in vivo, NSG mice; settings: each compound at its own dose/schedule; data from 3 separate studies
Description: The in vivo anti-leukemic activity of Compounds A, B, C, D, and F was tested at the indicated doses and treatment schedules. The doses were chosen based on the compounds tolerability profile (i.e. CA was dosed at 0.16 mg/kg because higher doses caused weight loss or other tolerability issues outlined in Example 6). Human AML cell line MV4;11 expressing mCherry and luciferase were injected into NSG mice. Upon measurement of leukemia cell engraftment, treatment was initiated. Body weight and bioluminescence were measured. It has previously been shown (Shair, Nature 2015) that bioluminescence corresponds to leukemia burden. […] Moreover there was no appreciable advantage between IV or PO dosing observed.

MV4; 11 = test: Half-maximal growth inhibition (GI50), MV4; 11; type: cell-based; settings: Homo sapiens, 240 h, AML, M5, MLL-AF4, read-out: GI50 (nM), day 10
Description: as §1

Opiate μ(OP3, MOP) = molecular target: T1, Opiate μ(OP3, MOP) (Homo sapiens, UniProt P35372); test: Panlab assay, Opiate μ(OP3, MOP); type: binding
T1 construct: Eurofins Panlabs
Description: (§2) Compounds A, B, C, and D were tested in Panlab assays to evaluate potential off-target activity using standard assay kits. Methods employed in these studies have been adapted from the scientific literature to maximize reliability and reproducibility.
IC50 values were determined by a non-linear, least squares regression analysis using MathIQ™ (ID Business Solutions Ltd., UK). […] Where presented, the Hill coefficient (nH), defining the slope of the competitive binding curve, was calculated using MathIQ™.

Tachykinin NK1 = molecular target: T2, Tachykinin NK1 (Homo sapiens, UniProt P25103); test: Panlab assay, Tachykinin NK1; type: binding
T2 construct: Eurofins Panlabs
Description: as §2, with “reproducibility. Reference standards were run as an integral part of each assay to ensure the validity of the results obtained.” for “reproducibility.”
IC50 values were determined by a non-linear, least squares regression analysis using MathIQ™ (ID Business Solutions Ltd., UK). Where inhibition constants (Ki) are presented, the Ki values were calculated using the equation of Cheng and Prusoff (Cheng, Y., Prusoff, W. H., Biochem. Pharmacol. 22:3099-3108, 1973) using the observed IC50 of the tested compound, the concentration of radioligand employed in the assay, and the historical values for the KD of the ligand (obtained experimentally at Eurofins Panlabs, Inc.). Where presented, the Hill coefficient (nH), defining the slope of the competitive binding curve, was calculated using MathIQ™.

T2 sequence (P25103 whole entry): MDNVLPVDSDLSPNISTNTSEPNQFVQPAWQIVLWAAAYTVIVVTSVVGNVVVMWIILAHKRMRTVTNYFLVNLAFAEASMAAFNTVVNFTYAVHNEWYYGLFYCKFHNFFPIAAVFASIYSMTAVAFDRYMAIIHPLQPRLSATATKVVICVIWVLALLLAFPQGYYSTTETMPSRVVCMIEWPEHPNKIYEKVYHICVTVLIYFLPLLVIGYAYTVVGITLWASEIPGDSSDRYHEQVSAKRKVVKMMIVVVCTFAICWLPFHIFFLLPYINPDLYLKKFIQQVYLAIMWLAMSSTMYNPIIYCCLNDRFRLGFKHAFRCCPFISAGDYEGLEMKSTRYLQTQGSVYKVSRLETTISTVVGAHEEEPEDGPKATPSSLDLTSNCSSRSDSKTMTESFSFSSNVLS
T1 sequence (P35372 whole entry): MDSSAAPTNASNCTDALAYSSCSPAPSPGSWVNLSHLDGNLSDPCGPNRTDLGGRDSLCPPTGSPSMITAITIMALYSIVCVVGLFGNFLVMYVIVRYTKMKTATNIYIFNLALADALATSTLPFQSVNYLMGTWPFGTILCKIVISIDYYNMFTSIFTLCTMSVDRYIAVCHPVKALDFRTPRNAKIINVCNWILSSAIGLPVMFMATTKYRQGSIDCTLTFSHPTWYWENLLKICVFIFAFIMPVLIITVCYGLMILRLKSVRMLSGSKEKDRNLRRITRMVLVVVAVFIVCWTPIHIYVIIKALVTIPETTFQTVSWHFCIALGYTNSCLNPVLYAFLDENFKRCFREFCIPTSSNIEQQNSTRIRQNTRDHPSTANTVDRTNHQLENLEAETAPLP

## CN(C)[C@H]1C[C@@]23CC[C@@]4(O2)C(=CC[C@]2(C)[C@@H](c5ccc6ccncc6c5)CC[C@H]24)C=C3[C@@H](O)[C@@H]1O [Cortistatin A]
MOLM-14
  GI50: < 1 nM
OCI-AML2
  GI50: 1 nM
K562
  GI50: > 1000 nM
In vivo
  AUC(0-inf): 134 ng·h/mL
SKNO-1
  GI50: < 1 nM
MKPL1
  GI50: < 1 nM
HEL
  GI50: > 1000 nM
[1]
  Efficacy Rank Day 15: 4
MV4; 11
  GI50: < 1 nM

## C[C@@H](NC(=O)[C@@H](N)Cc1ccc(O)cc1)C(=O)NCC(=O)N(C)[C@@H](Cc1ccccc1)C(=O)NCCO [DAMGO, reference compound]
Opiate μ(OP3, MOP)
  nH (Hill coefficient), Opiate μ(OP3, MOP): 0.75

## Ic1ccccc1CN[C@@H]1C2CCN(CC2)[C@@H]1C(c1ccccc1)c1ccccc1 (racemic) [L-703,606, reference compound]
Tachykinin NK1
  nH (Hill coefficient), Tachykinin NK1: 0.88
Tachykinin NK1; reference standard
  IC50: 3.6 nM
Tachykinin NK1; reference standard, Cheng and Prusoff
  Ki: 2.6 nM
